We go through 16 compounds from US20250163038A1, “CBL-B MODULATORS AND USES THEREOF” (Nimbus Clio, Inc., priority 2021, published 2025).

SMILES strings stand for the structures.

For experiment [1], the target named is Recombinant human Cbl-b (aa 36-427) (Homo sapiens, UniProt Q13191). The experiment in a line: Cbl-b Biochemical Assay (TR-FRET). Particulars: read-out: TR-FRET hCbl-b IC50.
The test system of experiment [2] is Jurkat (clone E6-1) cells with NFAT luciferase reporter. Put plainly: Jurkat reporter assay (NFAT Luciferase). The conditions noted are these: Homo sapiens; Jurkat NFAT luciferase reporter cells, anti-CD3 stimulation, 6 hr; read-out: Jurkat NFAT EC50. It counts as cell-based. (Reporter assays use an easily measured gene product as a stand-in for the process of interest.)

Experiment [3] deals with T1, Recombinant human c-Cbl (aa 47-435) (Homo sapiens, UniProt P22681).
T1 sequence (P22681 47-435): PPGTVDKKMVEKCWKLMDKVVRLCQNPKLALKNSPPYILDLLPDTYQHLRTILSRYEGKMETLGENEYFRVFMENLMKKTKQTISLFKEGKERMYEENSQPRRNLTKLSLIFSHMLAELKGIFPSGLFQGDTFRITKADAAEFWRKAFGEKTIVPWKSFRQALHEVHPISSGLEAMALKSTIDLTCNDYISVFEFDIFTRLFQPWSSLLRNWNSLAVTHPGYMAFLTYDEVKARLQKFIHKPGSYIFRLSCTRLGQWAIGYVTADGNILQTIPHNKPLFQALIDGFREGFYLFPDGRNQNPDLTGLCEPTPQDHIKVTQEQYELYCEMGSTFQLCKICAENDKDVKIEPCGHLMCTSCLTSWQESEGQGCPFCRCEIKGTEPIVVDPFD
The experiment in a line: c-Cbl Biochemical Assay (TR-FRET). The conditions noted are these: hc-Cbl Biochemical Assay (TR-FRET); read-out: TR-FRET hcCbl IC50. (TR-FRET usually uses a lanthanide donor and a delayed reading to cut background.)

Chain of Recombinant human Cbl-b (aa 36-427) (Q13191 36-427): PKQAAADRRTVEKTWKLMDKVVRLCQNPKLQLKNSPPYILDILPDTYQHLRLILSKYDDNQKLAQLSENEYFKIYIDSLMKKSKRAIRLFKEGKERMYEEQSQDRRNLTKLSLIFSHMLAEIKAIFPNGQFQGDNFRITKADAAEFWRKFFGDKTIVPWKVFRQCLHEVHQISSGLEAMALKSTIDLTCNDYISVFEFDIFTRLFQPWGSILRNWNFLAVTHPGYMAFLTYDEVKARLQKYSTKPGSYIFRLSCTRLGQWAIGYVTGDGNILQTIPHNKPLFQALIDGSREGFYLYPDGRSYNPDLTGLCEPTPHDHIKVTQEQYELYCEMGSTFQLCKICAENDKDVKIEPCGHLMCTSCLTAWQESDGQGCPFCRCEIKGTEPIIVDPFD

As a reminder, the IC50 is the concentration that inhibits the measured activity by half. By EC50 is commonly meant the concentration at which the effect is half-maximal. For the compound `O[C@H]1CCC[C@H]1NCc1cc(C(F)(F)F)c2oc(-c3cccc(-c4ccc(F)cc4-c4nnco4)c3)nc2c1` [IG-6, (1S,2R)-2-(((2-(4′-Fluoro-2′-(1,3,4-oxadiazol-2-yl)-[1,1′-biphenyl]-3-yl)-7-(trifluoromethyl)benzo[d]oxazol-5-yl)methyl)amino)cyclopentan-1-ol], the IC50 in experiment [1] and in experiment [3] was below 200 nM in each case. Besides, in experiment [2], the EC50 lay within 200 to 1000 nM.

Regarding `Cn1cnnc1-c1cc(F)ccc1-c1cccc(-c2nc3cc(CN[C@@H]4CCC[C@@H]4O)c(F)c(F)c3o2)c1` [HX-8, (1S,2R)-2-(((6,7-Difluoro-2-(4′-fluoro-2′-(4-methyl-4H-1,2,4-triazol-3-yl)-[1,1′-biphenyl]-3-yl)benzo[d]oxazol-5-yl)methyl)amino)cyclopentan-1-ol], the IC50 in experiment [1] and in experiment [3] was below 200 nM each time. Also, in experiment [2], the concentration giving a half-maximal response (EC50) is below 200 nM.

As to `C[C@@H](N[C@@H]1CCC[C@@H]1O)c1cc(C(F)(F)F)c2oc(-c3cccc(-c4ccc(F)cc4-c4nncn4C)c3)nc2c1` [EA-2, (1S,2R)-2-(((R)-1-(2-(4′-Fluoro-2′-(4-methyl-4H-1,2,4-triazol-3-yl)-[1,1′-biphenyl]-3-yl)-7-(trifluoromethyl)benzo[d]oxazol-5-yl)ethyl)amino)cyclopentan-1-ol], the IC50 in experiment [1] and in experiment [3] was below 200 nM throughout. The EC50 in experiment [2] was below 200 nM.

For the compound `COc1cc(CN(C)[C@@H]2CCC[C@@H]2O)cc2nc(-c3cccc(-c4ccc(F)cc4-c4nncn4C)c3)oc12` [HT-3, (1S,2R)-2-(((2-(4′-Fluoro-2′-(4-methyl-4H-1,2,4-triazol-3-yl)-[1,1′-biphenyl]-3-yl)-7-methoxybenzo[d]oxazol-5-yl)methyl)(methyl)amino)cyclopentan-1-ol], the IC50 in experiment [1] and in experiment [3] was below 200 nM each time. For the same compound, in experiment [2], the EC50 was 200 to 1000 nM.

In the case of `COc1cc(CN[C@@H](C)C2CCC2)cc2nc(-c3cccc(-c4ccc(F)cc4-c4nncn4C)c3)oc12` [GF-2, (S)-1-Cyclobutyl-N-((2-(4′-fluoro-2′-(4-methyl-4H-1,2,4-triazol-3-yl)-[1,1′-biphenyl]-3-yl)-7-methoxybenzo[d]oxazol-5-yl)methyl)ethan-1-amine], the IC50 in experiment [1] and in experiment [3] was below 200 nM each time. The EC50 in experiment [2] was below 200 nM.

Consider `Cn1cnnc1-c1cc(F)ccc1-c1cc(-c2nc3cc(CNCC4(O)CCCC4)ccc3o2)nc(C2CC2)c1` [AFE-1, 1-({[(2-{6-Cyclopropyl-4-[4-fluoro-2-(4-methyl-1,2,4-triazol-3-yl)phenyl]pyridin-2-yl}-1,3-benzoxazol-5-yl)methyl]amino}methyl)cyclopentan-1-ol], for which the half-inhibitory concentration (IC50) in experiment [1] and in experiment [3] was below 200 nM throughout. In addition, the EC50 in experiment [2] is below 200 nM.

As to `Cn1cnnc1-c1cc(F)ccc1-c1cccc(-c2nc3cc(CNCCC(F)F)cc(C(F)(F)F)c3o2)c1` [EW-2, 3,3-Difluoro-N-((2-(4′-fluoro-2′-(4-methyl-4H-1,2,4-triazol-3-yl)-[1,1′-biphenyl]-3-yl)-7-(trifluoromethyl)benzo[d]oxazol-5-yl)methyl)propan-1-amine], the IC50 in experiment [1] and in experiment [3] was below 200 nM each time. For the same compound, the EC50 in experiment [2] is below 200 nM.

For `COC[C@@H](C)NCc1cc(C)c2oc(-c3cc(-c4ccc(F)cc4-c4nncn4C)cc(C4CC4)n3)nc2c1` [AGL-1, [(2-{6-Cyclopropyl-4-[4-fluoro-2-(4-methyl-1,2,4-triazol-3-yl)phenyl]pyridin-2-yl}-7-methyl-1,3-benzoxazol-5-yl)methyl][(2R)-1-methoxypropan-2-yl]amine], the IC50 was below 200 nM in experiment [1] and 200 to 1000 nM in experiment [3]. Also, the EC50 in experiment [2] fell in the range of 200 to 1000 nM.

Regarding `CN(Cc1cc(C(F)(F)F)c2oc(-c3cccc(-c4ccc(F)cc4-c4nncn4C)c3)nc2c1)CC1(O)CCC1` [IA-1, 1-((((2-(4′-Fluoro-2′-(4-methyl-4H-1,2,4-triazol-3-yl)-[1,1′-biphenyl]-3-yl)-7-(trifluoromethyl)benzo[d]oxazol-5-yl)methyl)(methyl)amino)methyl)cyclobutan-1-ol], the concentration for half-maximal inhibition (IC50) in experiment [1] and in experiment [3] was below 200 nM throughout. Moreover, in experiment [2], the EC50 is below 200 nM.

Turning to `Cn1cnnc1-c1cc(F)ccc1-c1cccc(-c2nc3cc(CNC4CC4)cc(C(F)(F)F)c3o2)c1` [HO-2, N-((2-(4′-Fluoro-2′-(4-methyl-4H-1,2,4-triazol-3-yl)-[1,1′-biphenyl]-3-yl)-7-(trifluoromethyl)benzo[d]oxazol-5-yl)methyl)cyclopropanamine], the IC50 in experiment [1] and in experiment [3] was below 200 nM throughout. In addition, the EC50 in experiment [2] is below 200 nM.

As to `CC(C)CC1(CNCc2cc(C(F)(F)F)c3oc(-c4cccc(-c5ccc(F)cc5-c5nncn5C)c4)nc3c2)CCC1` [HQ-2, 1-(2-(4′-Fluoro-2′-(4-methyl-4H-1,2,4-triazol-3-yl)-[1,1′-biphenyl]-3-yl)-7-(trifluoromethyl)benzo[d]oxazol-5-yl)-N-((1-isobutylcyclobutyl)methyl)methanamine], the IC50 in experiment [1] and in experiment [3] was below 200 nM in each case. In addition, the EC50 in experiment [2] was in the range of 200 to 1000 nM.

On to `Cc1cc(C(C)NCC2CCC2)cc2nc(-c3cc(-c4ccc(F)cc4-c4nncn4C)cc(C4CC4)n3)oc12` (stereo not drawn) [AGU-1, (cyclobutylmethyl)[1-(2-{6-cyclopropyl-4-[4-fluoro-2-(4-methyl-1,2,4-triazol-3-yl)phenyl]pyridin-2-yl}-7-methyl-1,3-benzoxazol-5-yl)ethyl]amine], for which the IC50 in experiment [1] and in experiment [3] was below 200 nM each time. Further, the EC50 in experiment [2] was below 200 nM.

With `COc1cc(CN[C@@H]2CCC[C@]2(C)O)cc2nc(-c3cccc(-c4ccc(F)cc4-c4nncn4C)c3)oc12` [GI-2, (1S,2R)-2-(((2-(4′-Fluoro-2′-(4-methyl-4H-1,2,4-triazol-3-yl)-[1,1′-biphenyl]-3-yl)-7-methoxybenzo[d]oxazol-5-yl)methyl)amino)-1-methylcyclopentan-1-ol, Formic Acid], the half-maximal inhibitory concentration (IC50) in experiment [1] and in experiment [3] was 200 to 1000 nM throughout. Further, the EC50 in experiment [2] is 1000 to 10000 nM.

Regarding `CO[C@H]1CCCC1NCc1cc(C(F)(F)F)c2oc(-c3cccc(-c4ccc(F)cc4-c4nncn4C)c3)nc2c1` (stereo in doubt) [CV-2, (1S,2S)—N-((2-(4′-Fluoro-2′-(4-methyl-4H-1,2,4-triazol-3-yl)-[1,1′-biphenyl]-3-yl)-7-(trifluoromethyl)benzo[d]oxazol-5-yl)methyl)-2-methoxycyclopentan-1-amine], the 50% inhibitory concentration (IC50) in experiment [1] and in experiment [3] was below 200 nM in each case. Also, in experiment [2], the half-maximal effective concentration (EC50) fell in the range of 200 to 1000 nM.

As for `Cn1cnnc1-c1cc(F)ccc1-c1cccc(-c2nc3cc(CNCC4(O)CCCC4)cc(C(F)(F)F)c3o2)c1` [AK-2, 1-((((2-(4′-Fluoro-2′-(4-methyl-4H-1,2,4-triazol-3-yl)-[1,1′-biphenyl]-3-yl)-7-(trifluoromethyl)benzo[d]oxazol-5-yl)methyl)amino)methyl)cyclopentan-1-ol, Acetate], the IC50 in experiment [1] is below 200 nM; in experiment [3], 1000 to 10000 nM. In experiment [2], the EC50 fell in the range of 200 to 1000 nM.

Turning to `Cn1cnnc1-c1cc(F)ccc1-c1cccc(-c2nc3cc([C@H](CO)N4CCC4)cc(C(F)(F)F)c3o2)c1` (single isomer, unassigned) [DO-6], the IC50 in experiment [1] was below 200 nM; in experiment [3], 200 to 1000 nM. Further, the EC50 in experiment [2] was 1000 to 10000 nM.
